From ChEMBL document CHEMBL3885861, “Open TG-GATES”

Organism: Rattus norvegicus
Test: Open TG-GATES - Regimen: Daily Repeat
Type: toxicity, organism-based, Sprague-Dawley
Set-up: regimen Daily Repeat, gender Male, age 6 weeks
Conditions: in vivo, po, 2 mg/kg, route gavage, dose level Low; for APTT / Bas / Eos / Fbg / Hb / Ht / Lym / MCH / MCHC / MCV / Mono / Neu / PT / Plat / RBC / Ret / WBC: tissue Blood; for KIDNEY_L / KIDNEY_R / KIDNEY_TOTAL: tissue Kidney; for LIVER: tissue Liver; for ALP / ALT / AST / BUN / CRE / Ca / Cl / DBIL / GLC / IP / K / LDH / Na / PL / RALB / TBIL / TC / TG / TP / gamma-GTP: tissue Plasma

SMILES: O=P1(N(CCCl)CCCl)NCCCO1 (stereo not drawn) [CYCLOPHOSPHAMIDE ANHYDROUS]
- TERMINAL_BW (72 h, time 3 day): 217.7 g
- APTT (72 h, time 3 day): 20.8 s
- Bas (72 h, time 3 day): 0%
- Eos (72 h, time 3 day): 1%
- Fbg (72 h, time 3 day): 299.8 mg/dL
- Hb (72 h, time 3 day): 13.3 g/dL
- Ht (72 h, time 3 day): 40.1%
- Lym (72 h, time 3 day): 79.8%
- MCH (72 h, time 3 day): 21.3 pg
- MCHC (72 h, time 3 day): 33.1%
- MCV (72 h, time 3 day): 64.3 fL
- Mono (72 h, time 3 day): 3%
- Neu (72 h, time 3 day): 15%
- PT (72 h, time 3 day): 16.5 s
- Plat (72 h, time 3 day): 126.5 x10_4/uL
- RBC (72 h, time 3 day): 624.6 x10_4/ul
- Ret (72 h, time 3 day): 6.5%
- WBC (72 h, time 3 day): 74.5 x10_2/uL
- KIDNEY_L (72 h, time 3 day): 1 g
- KIDNEY_R (72 h, time 3 day): 1 g
- KIDNEY_TOTAL (72 h, time 3 day): 1.9 g
- LIVER (72 h, time 3 day): 10.2 g
- ALP (72 h, time 3 day): 1778.2 IU/L
- ALT (72 h, time 3 day): 40.2 IU/L
- AST (72 h, time 3 day): 67 IU/L
- BUN (72 h, time 3 day): 17.8 mg/dL
- CRE (72 h, time 3 day): 0.2 mg/dL
- Ca (72 h, time 3 day): 10.8 mg/dL
- Cl (72 h, time 3 day): 106 meq/L
- DBIL (72 h, time 3 day): 0 mg/dL
- GLC (72 h, time 3 day): 187.4 mg/dL
- IP (72 h, time 3 day): 7.1 mg/dL
- K (72 h, time 3 day): 4.1 meq/L
- LDH (72 h, time 3 day): 164.8 IU/L
- Na (72 h, time 3 day): 141.8 meq/L
- PL (72 h, time 3 day): 160.8 mg/dL
- RALB (72 h, time 3 day): 3.1 g/dL
- TBIL (72 h, time 3 day): 0.012 mg/dL
- TC (72 h, time 3 day): 78.2 mg/dL
- TG (72 h, time 3 day): 121.6 mg/dL
- TP (72 h, time 3 day): 5.6 g/dL
- gamma-GTP (72 h, time 3 day): 1.2 IU/L
- TERMINAL_BW ([…], time 7 day): 254.7 g
- TERMINAL_BW ([…], time 14 day): 305.2 g
- TERMINAL_BW ([…], time 28 day): 367.9 g
- APTT ([…], time 7 day): 22.6 s
- Bas ([…], time 7 day): 0%
- Eos ([…], time 7 day): 0.6%
- Fbg ([…], time 7 day): 282.6 mg/dL
- Hb ([…], time 7 day): 13.3 g/dL
- Ht ([…], time 7 day): 40.1%
- Lym ([…], time 7 day): 80.8%
- MCH ([…], time 7 day): 21.7 pg
- MCHC ([…], time 7 day): 33.2%
- MCV ([…], time 7 day): 65.3 fL
- Mono ([…], time 7 day): 2.4%
- Neu ([…], time 7 day): 15.4%
- PT ([…], time 7 day): 16.8 s
- Plat ([…], time 7 day): 130 x10_4/uL
- RBC ([…], time 7 day): 613.8 x10_4/ul
- Ret ([…], time 7 day): 5.8%
- WBC ([…], time 7 day): 88.7 x10_2/uL
- APTT ([…], time 14 day): 22.2 s
- Bas ([…], time 14 day): 0%
- Eos ([…], time 14 day): 0.8%
- Fbg ([…], time 14 day): 315 mg/dL
- Hb ([…], time 14 day): 13.9 g/dL
- Ht ([…], time 14 day): 41%
- Lym ([…], time 14 day): 82.6%
- MCH ([…], time 14 day): 20.2 pg
- MCHC ([…], time 14 day): 33.9%
- MCV ([…], time 14 day): 59.7 fL
- Mono ([…], time 14 day): 2.4%
- Neu ([…], time 14 day): 13.2%
- PT ([…], time 14 day): 14.8 s
- Plat ([…], time 14 day): 121.1 x10_4/uL
- RBC ([…], time 14 day): 687.8 x10_4/ul
- Ret ([…], time 14 day): 4.7%
- WBC ([…], time 14 day): 88.9 x10_2/uL
- APTT ([…], time 28 day): 23.3 s
- Bas ([…], time 28 day): 0%
- Eos ([…], time 28 day): 1%
- Fbg ([…], time 28 day): 302.6 mg/dL
- Hb ([…], time 28 day): 14.7 g/dL
- Ht ([…], time 28 day): 42.7%
- Lym ([…], time 28 day): 78.4%
- MCH ([…], time 28 day): 19.4 pg
- MCHC ([…], time 28 day): 34.5%
- MCV ([…], time 28 day): 56.1 fL
- Mono ([…], time 28 day): 2.2%
- Neu ([…], time 28 day): 17.2%
- PT ([…], time 28 day): 16.4 s
- Plat ([…], time 28 day): 98.2 x10_4/uL
- RBC ([…], time 28 day): 761.2 x10_4/ul
- Ret ([…], time 28 day): 2.6%
- WBC ([…], time 28 day): 84.8 x10_2/uL
- KIDNEY_L ([…], time 7 day): 1.1 g
- KIDNEY_R ([…], time 7 day): 1.1 g
- KIDNEY_TOTAL ([…], time 7 day): 2.3 g
- KIDNEY_L ([…], time 14 day): 1.2 g
- KIDNEY_R ([…], time 14 day): 1.2 g
- KIDNEY_TOTAL ([…], time 14 day): 2.5 g
- KIDNEY_L ([…], time 28 day): 1.3 g
- KIDNEY_R ([…], time 28 day): 1.3 g
- KIDNEY_TOTAL ([…], time 28 day): 2.6 g
- LIVER ([…], time 7 day): 12 g
- LIVER ([…], time 14 day): 13.3 g
- LIVER ([…], time 28 day): 14.1 g
- ALP ([…], time 7 day): 1581 IU/L
- ALT ([…], time 7 day): 41.4 IU/L
- AST ([…], time 7 day): 69.4 IU/L
- BUN ([…], time 7 day): 16.6 mg/dL
- CRE ([…], time 7 day): 0.2 mg/dL
- Ca ([…], time 7 day): 10.9 mg/dL
- Cl ([…], time 7 day): 105 meq/L
- DBIL ([…], time 7 day): 0 mg/dL
- GLC ([…], time 7 day): 184.6 mg/dL
- IP ([…], time 7 day): 7.7 mg/dL
- K ([…], time 7 day): 4.2 meq/L
- LDH ([…], time 7 day): 193.6 IU/L
- Na ([…], time 7 day): 143.2 meq/L
- PL ([…], time 7 day): 158.2 mg/dL
- RALB ([…], time 7 day): 3 g/dL
- TBIL ([…], time 7 day): 0.02 mg/dL
- TC ([…], time 7 day): 76.8 mg/dL
- TG ([…], time 7 day): 137.2 mg/dL
- TP ([…], time 7 day): 5.5 g/dL
- gamma-GTP ([…], time 7 day): 3.6 IU/L
- ALP ([…], time 14 day): 1389 IU/L
- ALT ([…], time 14 day): 34.4 IU/L
- AST ([…], time 14 day): 60.6 IU/L
- BUN ([…], time 14 day): 18.2 mg/dL
- CRE ([…], time 14 day): 0.2 mg/dL
- Ca ([…], time 14 day): 10.7 mg/dL
- Cl ([…], time 14 day): 107.2 meq/L
- DBIL ([…], time 14 day): 0.002 mg/dL
- GLC ([…], time 14 day): 174.4 mg/dL
- IP ([…], time 14 day): 6.5 mg/dL
- K ([…], time 14 day): 4.2 meq/L
- LDH ([…], time 14 day): 141.4 IU/L
- Na ([…], time 14 day): 142.8 meq/L
- PL ([…], time 14 day): 150.4 mg/dL
- RALB ([…], time 14 day): 3.1 g/dL
- TBIL ([…], time 14 day): 0.022 mg/dL
- TC ([…], time 14 day): 71.4 mg/dL
- TG ([…], time 14 day): 145.6 mg/dL
- TP ([…], time 14 day): 5.7 g/dL
- gamma-GTP ([…], time 14 day): 2 IU/L
- ALP ([…], time 28 day): 1055.8 IU/L
- ALT ([…], time 28 day): 34.8 IU/L
- AST ([…], time 28 day): 61.4 IU/L
- BUN ([…], time 28 day): 18.2 mg/dL
- CRE ([…], time 28 day): 0.2 mg/dL
- Ca ([…], time 28 day): 10.3 mg/dL
- Cl ([…], time 28 day): 105.8 meq/L
- DBIL ([…], time 28 day): 0 mg/dL
- GLC ([…], time 28 day): 175.2 mg/dL
- IP ([…], time 28 day): 6.6 mg/dL
- K ([…], time 28 day): 4 meq/L
- LDH ([…], time 28 day): 131.6 IU/L
- Na ([…], time 28 day): 144.2 meq/L
- PL ([…], time 28 day): 141.8 mg/dL
- RALB ([…], time 28 day): 3.1 g/dL
- TBIL ([…], time 28 day): 0.02 mg/dL
- TC ([…], time 28 day): 72.6 mg/dL
- TG ([…], time 28 day): 138.4 mg/dL
- TP ([…], time 28 day): 6.2 g/dL
- gamma-GTP ([…], time 28 day): 1 IU/L
